Data on five molecules can be found in patent US20130178454A1, “COMBINATION OF TESTOSTERONE AND ORNITHINE DECARBOXYLASE (ODC) INHIBITORS” (priority 2011, published 2013).

Entries after “also recorded” stand apart in the source; their conditions may differ.

Series [1] concerns castrated C57BL/6 mice. In words: Prostate and levator ani muscle weights in castrated mice treated with testosterone or testosterone plus DFMO (FIG. 9). Format: in vivo. An excerpt:
Shown is a histogram showing prostate weights and levator ani muscle weights in vehicle-treated intact C57BL/6 mice, and castrated mice treated with vehicle, testosterone, or testosterone plus an ODC inhibitor DFMO.

Series [2] addresses T1, ornithine decarboxylase (Homo sapiens, UniProt P11926).
T1 sequence (P11926 1-461): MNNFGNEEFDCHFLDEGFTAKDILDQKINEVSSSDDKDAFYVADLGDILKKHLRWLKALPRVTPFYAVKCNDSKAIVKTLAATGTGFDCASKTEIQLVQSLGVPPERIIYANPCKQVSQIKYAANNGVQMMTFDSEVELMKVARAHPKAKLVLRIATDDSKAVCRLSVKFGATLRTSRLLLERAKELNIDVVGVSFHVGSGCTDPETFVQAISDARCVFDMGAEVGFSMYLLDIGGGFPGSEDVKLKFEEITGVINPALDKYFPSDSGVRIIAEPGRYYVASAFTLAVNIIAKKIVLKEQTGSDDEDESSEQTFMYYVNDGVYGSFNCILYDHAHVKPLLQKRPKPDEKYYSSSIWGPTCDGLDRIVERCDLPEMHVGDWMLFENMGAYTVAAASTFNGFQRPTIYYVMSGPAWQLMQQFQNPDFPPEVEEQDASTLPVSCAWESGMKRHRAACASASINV
As to conditions: cited from earlier work.

Series [3] concerns carcinogen-induced cancer development. As to conditions: variety of rodent models; cited from earlier work.
The test system of series [4] is PCNA expression in the prostate epithelial cells. In words: PCNA expression in prostate epithelial cells (FIG. 7C). As to conditions: follistatin 1 ng/ml and 5 ng/ml, DHT 10 nM. In kind it is cell-based.
Series [5] concerns PSA expression in the prostate epithelial cells. Nature of the series: PSA expression in prostate epithelial cells (FIG. 7B). In kind it is cell-based. As to conditions: follistatin 1 ng/ml and 5 ng/ml, R1881 1 nM.
Series [6] deals with castrated (CX) mice. Nature of the series: Histologic sections of the prostate in castrated mice (FIG. 7A). In kind it is in vivo.
For series [7], the system named is ornithine decarboxylase (ODC) and polyamine pathway in the prostate. Nature of the series: Microarrays of prostate RNA from castrated mice treated with follistatin or testosterone (FIG. 8). Format: in vivo. As to conditions: microarray. An excerpt:
FIG. 8A is a schematic of microarray experiments to identify testosterone-selective signalling pathways in the prostate which are not activated by follistatin (Fst), and identify genes which are follistatin sensitive and those which are testosterone sensitive. Adult male mice were either sham-castrated or castrated under ketamine-xylazine anesthesia and treated with vehicle (sham), follistatin or testosterone. RNA was extracted from the prostate and levator ani muscle and subjected to microarrays. […] Shown in the box is the region of highly differentially expressed genes between the follistatin (Fst/CX) and testosterone (Tes/CX) treated mice.
Using microarrays, the inventors elucidated the signaling pathways that are differentially activated in the skeletal muscle and prostate by each of testosterone and follistatin, and assessed the pathways that are specifically activated in the prostate by testosterone, but were not follistatin (FIG. 8A-8B). The inventors determined that testosterone and follstatin both activate common signaling pathways that mediate their anabolic effects on the skeletal muscle, and specifically assessed if testosterone activates one or more unique signaling pathways in the prostate that are not activated by follistatin.

Series [8] relates to C3H 10T1/2 cells. As to conditions: 100 nm testosterone, 0.5 μg/ml anti-Fst antibody, rFst 0.2 μg/ml; cited from earlier work.
For series [9], the system named is Wnt target genes in 3T3-L1 cells. As to conditions: 3T3-L1 cells incubated with 100 nM testosterone; cited from earlier work.
The test system of series [10] is older men with low or low normal testosterone levels. As to conditions: testosterone versus placebo; cited from earlier work.
For series [11] the following is noted: cited from earlier work.
Series [12] has as its system C57BL/6 mice. Nature of the series: Systemic follistatin treatment of mice: fat mass, lean mass, muscle and bone mass (FIG. 6). Format: in vivo.
Series [13] concerns LNCaP cells. Nature of the series: Proliferation of androgen-sensitive LNCaP cells in vitro. Format: cell-based.
Where [14] appears, read: mice in vivo, given with testosterone.

Turning to `NCCCC(N)(C(=O)O)C(F)F` (racemic) [DFMO, (RS)-2,5-diamino-2-(difluoromethyl)pentanoic acid], in [1] (setting [14]), the “effect of the ODC inhibitor on testosterone's anabolic effect on the muscle” value was “did not block testosterone's effect on the muscle; also recorded: maintaining muscle anabolic effects of testosterone” and the “effect of the ODC inhibitor on testosterone-induced prostate growth” value is given as “blocks testosterone's effects on the prostate; also recorded: suppresses testosterone-induced prostate growth in vivo”. The “inhibition of ornithine decarboxylase” value in [2] is reported as “potent inhibitor of ornithine decarboxylase”. Moreover, in series [3], the carcinogen-induced cancer development result is on record as “inhibit carcinogen-induced cancer development”.

With `C[C@]12CCC(=O)C[C@@H]1CC[C@@H]1[C@@H]2CC[C@]2(C)[C@@H](O)CC[C@@H]12` [DHT, Dihydrotestosterone], the PCNA expression result in [4] is recorded as “upregulated PCNA expression”.

Turning to `C[C@]1(O)CC[C@H]2[C@@H]3CCC4=CC(=O)CCC4=C3C=C[C@@]21C` [R1881], in series [5], the PSA expression result is reported as “stimulates PSA expression”.

Turning to `C[C@]12CC[C@H]3[C@@H](CCC4=CC(=O)CC[C@@]43C)[C@@H]1CC[C@@H]2O` [testosterone, 17-β-hydroxyandrost-4-en-3-one], in series [1] (castrated C57BL/6 mice), the “levator ani muscle mass (levator ani muscle weights)” value was “restored prostate as well as levator ani muscle mass” and the “prostate mass (prostate weights)” value was “restored prostate as well as levator ani muscle mass”. The “prostate growth and prostate glands” value in series [6] was “restored prostate mass and growth of prostate glands”. In addition, the “polyamine biosynthetic pathway / ODC gene expression in the prostate” value in series [7] is recorded as “activated by testosterone in the prostate”. Besides, the “polyamine biosynthetic pathway / ODC gene expression in the prostate” value in series [7] (listed as Testosterone) is listed as “upregulate several biosynthetic pathways including the polyamine biosynthetic pathway”. For the same molecule, the “myogenic differentiation of mesenchymal multipotent cells” value in series [8] is reported as “promotes myogenic differentiation; also recorded: stimulate myogenic differentiation”. Also, in series [9], the “Fst, CD44 and Lef1 gene expression” value is “upregulation of Fst (follastin) and CD44 and Lef1 gene expression”. For the same molecule, in [10], the fat mass entry is listed as “reduces fat mass”; the “lean body mass, muscle strength and bone mineral density” value was “improves lean body mass (LBM), a measure of muscle mass, muscle strength and bone mineral density (BMD)”. In addition, in series [11], the “testosterone circulating unbound to plasma proteins” value was “Less than 2.5%”.

B1: follistatin: an endogenous protein that increases muscle mass; recombinant Fst protein (protein, UniProt P19883 30-344, looked up)
Follistatin: GNCWLRQAKNGRCQVLYKTELSKEECCSTGRLSTSWTEEDVNDNTLFKWMIFNGGAPNCIPCKETCENVDCGPGKKCRMNKKNKPRCVCAPDCSNITWKGPVCGLDGKTYRNECALLKARCKEQPELEVQYQGRCKKTCRDVFCPGSSTCVVDQTNNAYCVTCNRICPEPASSEQYLCGNDGVTYSSACHLRKATCLLGRSIGLAYEGKCIKAKSCEDIQCTGGKKCLWDFKVGRGRCSLCDELCPDSKSDEPVCASDNATYASECAMKEAACSSGVLLEVKHSGSCNSISEDTEEEEEDEDQDYSFPISSILEW
With B1, in series [12] (castrated mice), the fat mass entry is on record as “reduces fat mass”; the “muscle and bone mass” value is “increases muscle and bone mass”. In addition, in series [12] (mice, 13 weeks systemic administration of 0, 10, 30 and 100 μg recombinant follistatin), the “lean body mass, measured by NMR” value is reported as “increased dose-dependently”. Besides, the “fat mass, expressed as a percent of body weight” value in series [12] (mice, 13 weeks systemic administration of 10, 30 and 100 μg follistatin) was “fat mass is decreased”. The “prostate growth and prostate glands” value in series [6] is given as “does not stimulate prostate growth; also recorded: did not stimulate prostate growth or glands”. In addition, in series [5], the PSA expression entry was “nor does it up regulate PSA expression; also recorded: does not stimulate PSA expression”. Moreover, in series [13], the “proliferation of androgen-sensitive LNCaP cells” value was “does not up stimulate the proliferation”. For the same molecule, in series [7], the “polyamine biosynthetic pathway / ODC gene expression in the prostate” value was “not upregulated”. In series [8], the “myogenic differentiation of mesenchymal multipotent cells” value was “stimulate myogenic differentiation”.
